The values below come from US20120189670A1, “PHARMACEUTICAL COMPOSITIONS AND FORMULATIONS INCLUDING INHIBITORS OF THE PLECKSTRIN HOMOLOGY DOMAIN AND METHODS FOR USING SAME” (priority 2009, published 2012).

Data set [1] has as its target T1, AKT (phospho-Ser^473 AKT) in NIH3T3 cells (Mus musculus, UniProt P31750).
T1 construct: endogenous in cells; host or cells: NIH3T3
As to the kind of experiment: Inhibition of phospho-Ser473 AKT in NIH3T3 cells. The format is cell-based. How it is done:
[…]. […] AKT activity was measured by Western blotting using anti-phosphoSer437 AKT antibody. Downstream targets of AKT were detected also by Western blotting using specific anti-phospho antibodies and anti-actin was used as a loading control.

Data set [2] is described as follows: Cytotoxicity in HT-29 cells. Type of data set: cell-based, human. To be noted: human.
The next data set has as its system HT-29 cells. As to the kind of experiment: Cytotoxicity in HT-29 cells. The format is cell-based, human.
In another data set the target is T2, IRS1 PH domain (Homo sapiens, UniProt P35568).
T2 sequence (P35568 12-115 limits assumed): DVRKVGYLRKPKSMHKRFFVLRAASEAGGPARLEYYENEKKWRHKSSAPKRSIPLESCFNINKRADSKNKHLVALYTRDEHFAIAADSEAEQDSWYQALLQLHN
As to the kind of experiment: SPR direct binding, KD, IRS1 PH domain. To be noted: Table 10, SPR; for Kd: read-out: 1RS1 PH mKD. The method, then:
(§1) Binding assays using SPR and an ELISA competitive binding assay were used to measure the binding affinity (KD) of the compounds to all three PH domains. SPR was carried out as described above. […] Purified GST-PH domains were incubated with increasing concentrations of the compounds under analysis for about 4 hours in 0.2 M carbonate buffer pH 9.4 and were added to the 96-well plate and incubated overnight at 4° C. Following incubation, the plate was washed 4 times with phosphate buffered 0.9% NaCl (PBS), blocked with 3% bovine serum albumin (BSA) in PBS and 0.01% Tween for 1 hour, washed again 4 times with PBS and mouse monoclonal anti-glutathione-S-transferase antibody in 3% BSA (1:2000) was added for 1 hr at room temperature with shaking. The plate was washed 4 times with PBS and an anti-mouse IgG horseradish peroxidase coupled antibody (dilution 1:2000 in 3% BSA) was added for 1 hr. After 4 washes with PBS, 2,2′-azinobis[3-ethylbenzothiazoline-6-sulfonic acid]-diammonium salt (ABST) was added and the reaction was allowed to develop for 30 min.

The next data set deals with T3, PH domain of PDK1 (Homo sapiens, UniProt O15530).
T3 sequence (O15530 459-550 limits assumed): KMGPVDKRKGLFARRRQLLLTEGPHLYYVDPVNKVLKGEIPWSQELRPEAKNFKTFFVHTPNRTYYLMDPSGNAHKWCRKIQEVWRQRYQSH
As to the kind of experiment: SPR direct binding, KD, PDK1 PH domain. Conditions: Table 10, SPR; read-out: PDK1 PH mKD. How it is done: as §1

Data set [3] addresses T4, AKT (phospho-Ser^473 AKT) in HT-29 colon cancer cells (Homo sapiens, UniProt P31749).
T4 construct: endogenous in cells; host or cells: HT-29
As to the kind of experiment: Inhibition of phospho-Ser473 AKT in HT-29 colon cancer cells (Table 11). Type of data set: cell-based. Conditions: human HT-29 colon cancer cells. How it is done: AKT activity was measured by Western blotting using anti-phosphoSer437 AKT antibody. Downstream targets of AKT were detected also by Western blotting using specific anti-phospho antibodies and anti-actin was used as a loading control.
AKT activity was measured by Western blotting using anti-phospho-[…] AKT antibody, PDK activity by anti-phospho-Ser241 PDK antibody as well as downstream target PKC using pan-phospho PKC antibodies. Anti-actin was used as a loading control.

Data set [4] is described as follows: Metabolic stability, incubation with HT-29 cells. Type of data set: in vitro ADME. To be noted: human. The source says:
Compound 6 was too insoluble to obtain data.

A short description of the next data set: Solubility (Table 11). The format is physicochemical.
Data set [5] addresses T5, AKT (phospho-Ser^473-AKT) in HT-29 lung cancer cells (Homo sapiens, UniProt P31749).
T5 construct: endogenous in cells; host or cells: HT-29
As to the kind of experiment: Western blot phospho-Ser473-AKT in HT-29 cells (Table 2). Type of data set: cell-based. To be noted: read-out: AKT inhibition (IC50). The source says: (§2) AKT inhibition leads to cellular apoptosis.
(In general: Immunoblotting shows a protein as a band on a membrane.)

Another data set concerns HT-29 lung cancer cells. Put plainly: MTT cell survival in HT-29 cells (Table 2). The format is cell-based. To be noted: Homo sapiens.
Data set [6] deals with Panc-1 pancreatic cell line. As to the kind of experiment: MTT cell survival, Panc-1. To be noted: Homo sapiens; Panc-1, MTT. Type of data set: cell-based.
The test system of data set [7] is MiaPaca-2 pancreatic cell line. Put plainly: MTT cell survival, MiaPaca-2. Type of data set: cell-based. Conditions: Homo sapiens, MIA PaCa-2; MiaPaca-2, MTT.
Text: as §2

Data set [8] deals with Panc-1 pancreatic cell line. Put plainly: Apoptosis, morphological assay, Panc-1. The format is cell-based, human. To be noted: Panc-1, 20 μmol/L.
Text: as §2

For data set [9], the system named is MiaPaca-2 pancreatic cell line. Put plainly: Apoptosis, morphological assay, MiaPaca-2. The format is cell-based, human. Conditions: MiaPaca-2, 20 μmol/L.
Text: as §2

Data set [10] can be described thus: Pharmacokinetics of compound 316 in scid mice. Type of data set: in vivo, mouse.
Data set [11] deals with AKT (phospho-Ser-AKT) in HT-29 xenograft tumors (Homo sapiens, UniProt P31749). Put plainly: Tumor phospho-Ser-AKT in HT-29 xenografts. To be noted: 4 hours after a single 250 mg/kg dose. The format is in vivo, mouse.
The format of data set [12] is in vivo.
The target in data set [13] is T6, AKT PH domain (Homo sapiens, UniProt P31749). As to the kind of experiment: SPR direct binding (Biacore 2000), KD. More on the design: made in house. Conditions: purified AKT PH domain. How it is done: as §1
A short description of data set [14]: pH solubility profile / pKa. The format is physicochemical. To be noted: aqueous buffer solutions, from pH-solubility profile. How it is done:
These samples were then rotated at room temperature for 24 hours. After rotation, if there was no evidence of precipitated compound, additional compound 104 was added and the dissolution processes were repeated. […] HPLC Assay. […] The run time was 5 minutes and the injection volume was 2 μL.

The subject of the next data set is SKOV-3 ovarian cancer. As to the kind of experiment: Antitumor activity, oral gavage, SKOV-3 xenograft. To be noted: SKOV-3, 250 mg/kg BID × 10 D oral. Type of data set: in vivo, mouse.
Data set [15] addresses T6, AKT PH domain. To be noted: purified AKT PH domain, SPR.
For a further data set, the system named is pancreatic cancer cells. Put plainly: Cell viability assay (Table 3). Conditions: viability assay; cell line not given.
Where [16] appears, read: HT-29 cell culture conditions, read-out: half lives under cell culture conditions.
Setting [17] is: incubating with HT-29 cells at maximum DMEM concentration at 37° C., read-out: Metabolic half life.

Values after ≈ are worked out from the molar mass of the structure shown. Read-outs that look alike come from different tables or passages of the source.

T4 sequence (P31749 whole entry): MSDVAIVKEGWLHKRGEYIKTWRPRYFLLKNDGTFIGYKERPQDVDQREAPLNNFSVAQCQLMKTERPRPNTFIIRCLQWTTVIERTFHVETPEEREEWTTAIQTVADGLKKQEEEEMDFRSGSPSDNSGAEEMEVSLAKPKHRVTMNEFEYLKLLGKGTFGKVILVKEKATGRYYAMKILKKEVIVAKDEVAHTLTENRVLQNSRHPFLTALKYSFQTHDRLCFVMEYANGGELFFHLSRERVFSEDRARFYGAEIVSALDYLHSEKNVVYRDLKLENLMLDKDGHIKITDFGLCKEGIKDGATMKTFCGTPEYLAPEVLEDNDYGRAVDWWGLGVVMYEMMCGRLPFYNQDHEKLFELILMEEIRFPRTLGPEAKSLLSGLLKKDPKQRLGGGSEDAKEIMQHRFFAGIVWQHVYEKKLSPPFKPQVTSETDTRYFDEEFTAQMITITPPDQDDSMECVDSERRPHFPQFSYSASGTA
T1 sequence (P31750 whole entry): as the sequence (P31749 whole entry) above, with S2N, A50S, T100A, K112R, E117T, K389T, G410N, H415D counted along it
T6 sequence (P31749 5-108 limits assumed): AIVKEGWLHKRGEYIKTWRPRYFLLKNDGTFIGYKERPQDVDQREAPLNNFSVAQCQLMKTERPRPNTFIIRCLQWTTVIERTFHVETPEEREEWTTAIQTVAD
AKT (phospho-Ser-AKT) in HT-29 xenograft tumors, sequence (P31749 whole entry): as the sequence (P31749 whole entry) above
T5 sequence (P31749 whole entry): as above

Turning to `CC1=NN(C(=O)c2ccc(O)cc2)C(=O)C1/N=N/c1ccc(S(=O)(=O)Nc2ncccn2)cc1` (stereo not drawn) [Compound 360], the figures for the IC50 in data set [1], in data set [2] and in [3] were 5 µM, above 100 µM and above 20 µM, respectively. Further, the “Cytotoxicity (IC50 μM)” value in the data set on HT-29 cells was “no cytotoxicity”. For the same molecule, the “1RS1 PH mKD” value at IRS1 PH domain is “low KD”. Moreover, the Kd at IRS1 PH domain turned out to be 1.74 ± 0.41 µM; at PH domain of PDK1, 0.42 µM. Also, the half-life was 1 to 2 h in [4] (setting [16]) and 2.3 h in data set [4] (setting [17]). Besides, in the data set “Solubility (Table 11)”, the solubility (in general, the dissolved amount per volume that the medium holds) turned out to be 13.1 µM (≈ 6.28 µg/mL).
For `O=C(O)c1ccccc1C(=O)Nc1ccccc1SCCS(=O)(=O)c1ccc(Cl)cc1` [Compound 389], the IC50 – broadly, the concentration at which inhibition is half-maximal – in [5] is 5 µM; in the data set on HT-29 lung cancer cells, above 100 µM.
In the case of `CCCCCCCCCC(=O)Nc1ccc(S(=O)(=O)Nc2nncs2)cc1` [Compound 101, N-(4-(N-1,3,4-Thiadiazol-2-ylsulfamoyl)phenyl)decanamide], the IC50 was 127 µM in data set [6] and 90 µM in data set [7]. Moreover, the “Apoptosis at 20 μmol/L” value is listed as 28.7 ± 0.3/ % in [8] and 20.0 ± 1.5% in [9].
Molecule `CC1=NN(C(=O)c2ccc(N)cc2)C(=O)C1/N=N/c1ccc(S(=O)(=O)Nc2ncccn2)cc1` (stereo not drawn) [Compound 333] yielded an IC50 in data set [2] above 100 µM. Also, the “Cytotoxicity (IC50 μM)” value with HT-29 cells is on record as “no cytotoxicity”. Besides, on IRS1 PH domain, the “1RS1 PH mKD” value was “low KD” and the Kd was 0.14 ± 0.02 µM. Moreover, in data set [3], the IC50 is above 20 µM. Also, the half-life in data set [4] (setting [17]) was above 8 h. Further, the solubility in the data set “Solubility (Table 11)” is 12.9 µM (≈ 6.17 µg/mL).
For `NS(=O)(=O)c1nnc(NS(=O)(=O)c2cccc3cccnc23)s1` [Compound 345], in the data set with HT-29 lung cancer cells, the IC50 was above 100 µM.
With `CC1=NN(C(=O)c2ccc(C(C)(C)C)cc2)C(=O)C1/N=N/c1ccc(S(=O)(=O)Nc2ncccn2)cc1` (stereo not drawn) [Compound 332], the IC50 in data set [1] was above 20 µM; in [2] it was 25 µM; in [3], above 20 µM. The values for the half-life in data set [4] (setting [16]) and in [4] (setting [17]) were 1 to 2 h and 1.52 h, respectively. The molecule further came in with a solubility in “Solubility (Table 11)” of 28.6 µM (≈ 14.9 µg/mL).
In turn, `CC1=NN(C(=O)c2ccc(Cl)cc2)C(=O)C1/N=N/c1ccc(S(=O)(=O)Nc2ncccn2)cc1` (stereo not drawn) [Compound 316, (E)-4-((1-(4-chlorobenzoyl)-3-methyl-5-oxo-4,5-dihydro-1H-pyrazol-4-yl)diazenyl)-N-(pyrimidin-2-yl)benzenesulfonamide] registered an IC50 in [1] of 4 µM. Besides, the figures for the peak plasma concentration in data set [10] (single dose 250 mg/kg i.p.) and in data set [10] (single dose 250 mg/kg oral) were 1.4 nM and 600 nM, respectively. In [11], the “tumor phospho-Ser-AKT” value is “inhibition of tumor phospho-Ser-AKT was observed”. Moreover, the half-life was 1 to 2 h in [4] (setting [16]) and 1.03 h in data set [4] (setting [17]). The molecule also displayed a solubility in the data set “Solubility (Table 11)” of 17.9 µM (≈ 8.91 µg/mL). Further, the “toxicity of repeated doses” value in data set [12] (five daily doses of 250 mg/kg i.p.) is “moderate neutropenia”. Further, the “toxicity of a single dose” value in [12] (single dose of up to 250 mg/kg i.p.) was “no toxicity”.
Consider `CC(=O)Nc1ccc(S(=O)(=O)Nc2nncs2)cc1` [Compound 102, N-(4-(N-1,3,4-Thiadiazol-2-ylsulfamoyl)phenyl)acetamide], for which the IC50 in [6] and in data set [7] was above 100 µM in each case. Also, the KD entry on AKT PH domain [13] is reported as “did not appear to bind”.
As to `CCCCCCCCCCCCc1ccc(S(=O)(=O)Nc2nncs2)cc1` [Compound 104, 4-Dodecyl-N-(1,3,4-thiadiazol-2-yl)benzenesulfonamide], the pKa (in general, the pH at which an ionisable group is half protonated) in [14] (read-out: acidic pKa) was 7.9 to 8.3. Besides, in data set [14] (read-out: additional pKa), the pKa is above 9. Also, in the data set with SKOV-3 ovarian cancer, the Growth rate was found to be 122 ± 16 mm^3/10 days and the T/C (usually the result in the treated group divided by that in the control group, in per cent) amounted to 28.3%. Besides, in [9], the “Apoptosis at 20 μmol/L” value worked out at 31.3 ± 1.6%.
Take `COCCOCCOCC(=O)Nc1ccc(S(=O)(=O)Nc2nncs2)cc1` [Compound 103]: the IC50 in [6] and in data set [7] was above 100 µM in each case. For the same molecule, the “Apoptosis at 20 μmol/L” value in [8] is 11.4 ± 0.5/ %; in data set [9], 18.7 ± 3.1%.
Take `CC1=NN(C(=O)c2ccccc2)C(=O)C1/N=N/c1ccc(S(=O)(=O)Nc2ncccn2)cc1` (stereo not drawn) [Compound 331]: the IC50 is 11 µM in data set [1] and 14 µM in data set [2]. The figures for the half-life in data set [4] (setting [16]) and in data set [4] (setting [17]) were 1 to 2 h and 1.03 h, respectively. Also, the solubility in “Solubility (Table 11)” was found to be 28.3 µM (≈ 13.1 µg/mL).
Take `COc1cc(NS(=O)(=O)c2ccc(NS(=O)(=O)c3c(C)noc3C)cc2)nc(OC)n1` [Compound 415]: half-maximal inhibition in the data set on HT-29 lung cancer cells (IC50) was put at 3.1 µM.
Turning to `CCCCCCCC(=O)OC[C@H](COP(=O)(O)O[C@H]1[C@H](O)[C@@H](OP(=O)(O)O)[C@H](OP(=O)(O)O)[C@@H](OP(=O)(O)O)[C@H]1O)OC(=O)CCCCCCC` [diC8-PtdIns(3,4,5)P3], the Ki (as a rule, the dissociation constant of the complex between target and ligand, obtained from inhibition or displacement) at AKT PH domain [15] is around 0.3 µM.
As for `Nc1ccc(S(=O)(=O)Nc2nncs2)cc1` [Compound 100, 4-Amino-N-(1,3,4-thiadiazol-2-yl)benzenesulfonamide], the IC50 in data set [6] and in data set [7] was above 100 µM each time. The “Apoptosis at 20 μmol/L” value in data set [8] is 24.3 ± 3.2/ %; in data set [9], 25.7 ± 2.6%. In addition, the “Cell viability (IC50)” value in the data set with pancreatic cancer cells was “N/I”.
